In one experiment the test system is HIV IIIb. The experiment is classed as cell-based, HIV-1. The protocol:
Several of these peptides have also been screened for activity in inhibition of HIV infectivity and determined to be effective in specifically blocking the entrance of HIV into cells with EC50's in the nM range. For example, the assays depicted in FIG. 12 confirm the inhibition of HIV infection by CXCR4 peptide inhibitors.
The anti-HIV activity of exemplary compounds was tested using established adherent HELA cells or Magi cell-based (Magi cell line incorporating the reporter genes) cell line infected with a variety of HIV-1 isolates. Inhibitory activity was determined using a reporter system. The cell line was modified to contain the gene for the HIV-LTR (long terminal repeat) promoter which is used by HIV after infection. This gene was coupled to an enzyme, β-galactosidase, which can cleave a substrate, CPRG (Chlorophenol red β-D-galactoside) which gives rise to a colored signal or FDG (Fluorescein di-Galactoside) which gives rise to a fluorescent signal. Thus, if the cell becomes infected with HIV, it couples to the HIV-LTR promoter, producing the enzyme β-galactosidase, which then cleaves the CPRG substrate giving rise to a measurable absorbance signal, for example, at or about 595 nm. […]
Measurements were taken four days after infection. […] EC50's were determined graphically using Kaleidagraph, a software program sold by Synergy Software, Reading, PA. […]

In the next experiment the target is T1, CXCR4 (Homo sapiens, UniProt P61073).
T1 construct: A full-length clone was not isolated with the 3′ and 5′ primers; however, two halves were isolated and ligated together; made in house; host or cells: High Five (Trichoplusia ni) insect cells, baculovirus; membrane preparation
T1 sequence (P61073 whole entry): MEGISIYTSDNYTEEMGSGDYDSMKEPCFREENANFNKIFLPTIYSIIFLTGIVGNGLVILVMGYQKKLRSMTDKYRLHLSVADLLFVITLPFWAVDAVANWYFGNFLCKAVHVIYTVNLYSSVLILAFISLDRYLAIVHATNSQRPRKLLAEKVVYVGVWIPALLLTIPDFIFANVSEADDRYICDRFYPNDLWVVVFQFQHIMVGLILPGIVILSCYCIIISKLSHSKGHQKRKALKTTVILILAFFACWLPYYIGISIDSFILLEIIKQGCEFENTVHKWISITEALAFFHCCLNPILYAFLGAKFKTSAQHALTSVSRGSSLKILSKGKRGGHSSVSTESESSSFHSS
In words: radioligand binding assay, [125I]-SDF-1α on membrane preparations of GST-CXCR4 (High Five). The following applies: increasing [125I]-SDF-1α 0.5 nM to 10 nM; GST-CXCR4 (High Five) membranes; FIG. 7A; read-out: KD, saturation binding.

The next experiment concerns the target T2, SH2 (src) (Homo sapiens, UniProt P12931).
T2 construct: SH2 (src)
The following applies: binding domain SH2 (src); cited from earlier work.

Where a SMILES comes first, the peptide text is derived from it. Where no end group is shown, it is not given here. [ ]: non-standard residue; d: D form. pY = N[C@@H](Cc1ccc(OP(=O)(O)O)cc1)C(=O)O; 2Nal = N[C@@H](Cc1ccc2ccccc2c1)C(=O)O; Tic = O=C(O)[C@@H]1Cc2ccccc2CN1

Protocol for CXCR4: Relative affinities were measured by modifying the radiolabel binding assay used in receptor purification. Therefore, the ability of these peptides to displace [1^251]-SDF-1 from purified CXCR4 membranes was measured.
Whole cells from Sf9 and High five cell lines were lysed using hypotonic buffers (10 mM Tris, pH 7.4, 5 mM EDTA), and membrane preparations were made by homogenization and centrifugation using standard techniques known to those skilled in the art. […] For filtration and washing, the reaction was transferred to Millipore Multiscreen filter plates (HATF 0.45 μm; pre-blocked with 10% BSA) (Bedford, Mass.), filtered using vacuum, washed 4-5 times with 200 μL ice-cold buffer, and radioactive counts bound were detected using scintillation counting. All points were done in triplicate. Uninfected cells were used as a control for this experiment. […] Analyses of KD and IC50 were performed using non-linear curve fitting in Kaleidagraph (software program sold by Synergy Software, Reading, Pa.).
The affinity for the receptor was determined using standard radioligand displacement methodology.

As for `CC[C@H](C)[C@H](NC(=O)[C@H](CC(C)C)NC(=O)[C@H](CO)NC(=O)[C@H](CCCNC(=N)N)NC(=O)[C@H](C)N)C(=O)N[C@@H](Cc1ccc2ccccc2c1)C(=O)N[C@@H](CCCNC(=N)N)C(=O)N1Cc2ccccc2C[C@H]1C(=O)N[C@@H](C)C(=O)N[C@@H](CCCNC(=N)N)C(=O)N[C@@H](CCCNC(=N)N)C(=O)N[C@@H](Cc1ccc2ccccc2c1)C(=O)N[C@@H](CCCNC(=N)N)C(=O)N[C@@H](CCCNC(=N)N)C(N)=O` [CPI-1500, ARSLI(2-Nal)R(Tic)ARR(2-Nal)RR] (H-ARSLI[2Nal]R[Tic]ARR[2Nal]RR-NH2; N-terminus assumed), in the experiment on HIV IIIb (HIV IIIb versus R5 virus 9881), the viral specificity entry is recorded as “specificity for the HIV IIIb over the R5 virus 9881”. The EC50 in the experiment on HIV IIIb (HIV IIIb, FIG. 12A, read-out: EC50, inhibition of infection of HIV IIIb) was found to be 280 nM.

Turning to “[^125I]-SDF-1α: radiolabeled SDF-1α, the radioligand of the CXCR4 binding assay”, in the experiment with CXCR4, the Kd came out at 3.27 nM.

Consider pYEEIY ([pY]EEIY), for which the Kd in the experiment with SH2 (src) is 100 nM.

The term EC50 denotes the midpoint of the concentration-response curve.

These data come from patent publication US20030167129A1, “Binding compounds and methods for identifying binding compounds” (priority 2000, published 2003).
